pIC50: −log10 of the molar value. Entries after “also recorded” stand apart in the source; their conditions may differ. Like-named read-outs stand apart in the source and are kept apart here. Blank lines part the entries; values can stand above or below the compound they belong to.
Legend:
[1] = tested on: RET/PTC1 expressing TPC1 cells; parameters: method as in PMID 25409876; settings: cited from earlier work
MCF7 cells = tested on: MCF7 cells; parameters: method as in PMID 25409876; settings: cited from earlier work
RET kinase (c-RET-GFRα2) = RET kinase (c-RET-GFRα2) (Homo sapiens, UniProt P07949); assay: PathHunter express c-RET-GFRα2 functional live-cell assay (neurturin stimulated); assay type: cell-based
Sequence of RET kinase (c-RET-GFRα2) (P07949 29-1114): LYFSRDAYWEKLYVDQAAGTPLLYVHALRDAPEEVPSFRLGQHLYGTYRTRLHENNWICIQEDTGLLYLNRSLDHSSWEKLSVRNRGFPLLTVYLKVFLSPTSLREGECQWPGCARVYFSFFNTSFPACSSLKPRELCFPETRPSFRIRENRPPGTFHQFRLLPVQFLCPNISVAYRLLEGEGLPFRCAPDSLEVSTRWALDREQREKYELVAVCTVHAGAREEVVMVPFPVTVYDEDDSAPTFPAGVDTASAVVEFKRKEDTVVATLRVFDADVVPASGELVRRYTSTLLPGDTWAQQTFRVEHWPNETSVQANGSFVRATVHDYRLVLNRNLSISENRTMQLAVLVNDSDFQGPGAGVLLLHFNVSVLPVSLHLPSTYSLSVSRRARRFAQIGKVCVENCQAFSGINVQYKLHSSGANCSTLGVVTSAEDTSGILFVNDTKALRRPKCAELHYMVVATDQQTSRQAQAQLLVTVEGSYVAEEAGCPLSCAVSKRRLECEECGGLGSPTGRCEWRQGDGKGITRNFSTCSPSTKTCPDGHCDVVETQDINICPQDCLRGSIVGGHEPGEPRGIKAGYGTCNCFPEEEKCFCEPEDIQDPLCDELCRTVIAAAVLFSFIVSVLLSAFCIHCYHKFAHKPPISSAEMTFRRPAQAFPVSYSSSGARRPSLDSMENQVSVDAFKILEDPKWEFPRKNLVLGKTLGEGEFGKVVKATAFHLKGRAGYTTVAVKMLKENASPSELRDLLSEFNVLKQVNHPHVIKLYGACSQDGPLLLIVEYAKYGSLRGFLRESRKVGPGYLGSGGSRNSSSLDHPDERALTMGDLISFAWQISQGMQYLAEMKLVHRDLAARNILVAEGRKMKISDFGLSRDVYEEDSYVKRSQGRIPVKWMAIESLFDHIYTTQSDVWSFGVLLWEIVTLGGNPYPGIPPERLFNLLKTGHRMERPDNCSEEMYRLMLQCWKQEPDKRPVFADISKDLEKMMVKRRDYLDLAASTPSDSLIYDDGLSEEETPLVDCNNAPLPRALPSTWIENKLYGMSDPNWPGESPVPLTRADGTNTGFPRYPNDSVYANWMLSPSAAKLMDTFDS
Experimental: The photoactivation of 6 was also tested in a RET functional whole cell assay which utilizes β-galactosidase to produce a luminescent readout[24][25][26] (see Methods section for assay details). Compound 6 was added to live cells expressing RET kinase in two identical preparations, followed by 3 h preincubation at 37 °C. At this point, one preparation was exposed to light (365 nm, 15 min), while the other was kept in the dark. Again, 15 min is clearly not sufficient to complete the decaging (see above). Addition of the growth factor neurturin (required to activate the RET kinase) and incubation for 3 h at 22 °C allowed for activity-correlating signal induction using the supplemented detection reagents. […] To again exclude distortive effects of light on the cells, incubations without inhibitor were exposed to light.
PathHunter express c-RET-GFRα2 functional assay and recombinant human neurturin were purchased from DiscoveRx (DiscoveRx Corporation, Fremont CA 94538 USA) and used according to instructions. […] Incubations were performed in the provided assay buffer (1 vol% DMSO) in a white flat/clear-bottom 96-well plate. Incubation volume was 110 μL. Brief procedure; Cells were thawed and diluted to ca. 100 000 cells/mL, followed by plating and acclimatization in 37 °C, 5% CO2, humidified, environment for 48 h. Thereafter, the inhibitor was added and the plate was returned to 37 °C for 3 h. The cells were then stimulated with the GDNF-family growth factor neurturin (applied concentration: 15 ng/mL = EC80) and incubated 3 h at 22 °C in the dark. An activity-correlating luminescence signal was induced using the detection reagent provided in the kit according to the recommended protocol. Luminescence was recorded on a BMG Labtech Fluostar Omega luminometer. All incubations were done in duplicates.

[2] = tested on: zebrafish embryos tg(olig2:dsRed) (ret); assay: Motoneuron development in zebrafish embryos, confocal imaging at 2 dpf; assay type: in vivo, Danio rerio
Experimental: In the light of this, we chose to investigate the decaging of 6 in the transgenic zebrafish line tg(olig2:dsRed)[33], and any effect this may have on the motoneuron development. The choice of zebrafish line is motivated by the labeling of ventral spinal cord precursor cells that produce motoneurons and oligodendrocytes, facilitating the assessment of altered motoneuron phenotypes. Transgenic zebrafish embryos were incubated in 10 μM and 50 μM solutions of 6 at 3 hours post fertilization (hpf) for 11 h. We opted for decaging at 14 hpf since primary motoneurons start to sprout growth cones at 18 hpf[36]. We hypothesized that blocking ret signalling at this time point would primarily affect axonal extension and not formation of motoneurons. After washing with fresh medium the embryos were irradiated for 15 min (365 nm). The embryos were left to develop until 2 days post fertilization (dpf) when their spinal cords were scanned with confocal imaging. […] All experimental procedures were carried out in compliance with relevant guidelines and regulations of the Swedish National Board for Laboratory Animals. The protocols were also approved by the medical ethics committee of University of Gothenburg. Zebrafish (Danio rerio) embryos of strain tg(olig2:dsRed)[32] were kept at the Institute of Neuroscience and Physiology, University of Gothenburg. Fertilized eggs were collected and kept in petri dishes containing embryo medium (EM; 5.03 mM NaCl, 0.17 mM KCl, 0.33 mM CaCl2·2H2O, 0.33 mM MgCl2·6H2O), in darkness, in an incubator at 28.5 °C. Eggs were incubated in either 6 or 1% DMSO from 3 hours post-fertilization (hpf) and then dechorinated at 9 hpf to allow for better compound uptake. After 11 hours of incubation, 14 hpf embryos were washed three times with EM and moved to clean petri dishes containing 1-phenyl 2-thiourea (PTU, 0,003%, Sigma) and diluted in EM to prevent pigmentation. Embryos were irradiated for 15 min (365 nm) and then kept in the incubator until time of confocal imaging. A second set of animals were incubated in 6 from 14 hpf to 24 hpf, after which animals were washed and illuminated in the same way as the first group. Prior to imaging at 2 days post-fertilization (dpf), the embryos were anesthetized using 0.02% tricaine methanesulfonate (MS-222) diluted in EM and embedded in low-melting agarose. The imaging was performed on a ZEISS LSM710 confocal microscope at the Centre for Cellular Imaging at the Sahlgrenska Academy. Stacks of labeled spinal cord neurons were collected using a 561 nm laser. Maximal intensity pictures of spinal cord hemisegments and axonal phenotypes were analyzed using ImageJ (U. S. National Institutes of Health, Bethesda, Maryland, USA) according to Abramsson et al. 2013[38].

Human recombinant RET = molecular target: T1, Human recombinant RET (Homo sapiens, UniProt P07949); assay: In vitro (cell-free) RET kinase incubation, luminescent ADP detection; assay type: biochemical; settings: for pIC50: read-out: IC50, RET-induced ATP turnover; for RET kinase activity: 1.6 μM
T1 construct: purchased Promega; host or cells: Sf9 insect cells
T1 sequence (P07949 29-1114): as above
Experimental: With the caged compound in hand, the ability to photocontrol the inhibition of RET kinase was assessed. For this purpose, an in vitro assay with purified RET kinase was used to measure ADP production during substrate phosphorylation. Compound 6 was added to two parallel preparations comprising RET kinase and substrate. One preparation was exposed to light (365 nm, 15 min), while the other was kept in the dark.
After adding ATP and incubating at room temperature for 30 min, the relative ATP turnover was assessed. […] For example; irradiating an administered dose of 1.6 μM 6, would modulate the RET kinase activity from 90% to 10%.
Human recombinant RET expressed in Sf9 insect cells (Specific Activity: 220 nmol^−1min^−1mg^−1), substrate (IGFlRtide), and ATP were purchased in an assay ready kit from Promega[37] (Promega Corporation, Madison WI 53711 USA) and used as received. Incubations were performed in 40 mM Tris buffer (pH 7.4, 1 vol% DMSO) supplemented with 50 μM DTT and 20 mM MgCl2 in a white flat-bottom 96-well plate. Incubation volume was 25 μL. Brief procedure; Kinase (0.8 μg/mL), substrate (40 μg/mL), ATP (10 μM) and inhibitor were combined and incubated for 30 min at room temperature in the dark, with shaking. After the kinase reaction, two detection reagents were added in a stepwise manner. The first reagent depleted the remaining (unreacted) ATP in the reaction mix. The second reagent converted the ADP produced in the kinase reaction to ATP and generated a luminescence signal using a luciferase/luciferin reaction. The light generated is proportional to the amount ADP present and, consequently, to the kinase activity. Luminescence was recorded on a BMG Labtech Fluostar Omega luminometer. All incubations were done in duplicates.
2. Fitting of dose-response data
Positive and negative control experiments with and without light exposure (15 min, 365 nm) were run in parallel to the inhibitor incubations. The positive control was identical to the inhibitor experiment but with buffer additions instead of ATP and Neurturin for the cell-free and live-cell incubation, respectively. The negative control was identical to the inhibitor experiment but with inhibitor diluent (DMSO) addition instead of inhibitor. The intensity reading from the positive control was subtracted from the corresponding value from the inhibitor incubation. This was followed by normalization to the negative control reading. The resulting luminescence intensities (I) at the applied inhibitor concentrations (C) were fitted to […]
A global, error-weighted (instrumental) fit was performed by making the top- (A2) and bottom (A1) asymptotes shared parameters for the included data sets. […]
140/2013, and followed the guidelines of the Swedish National Board for Laboratory

8505C cells = tested on: 8505C cells; parameters: method as in PMID 25409876; settings: cited from earlier work
RET = tested on: RET; parameters: method as in PMID 22559926; settings: cited from earlier work
[3] = tested on: GDNF-induced RET phosphorylation of ERK1/2; parameters: method as in PMID 22559926; settings: cited from earlier work
C643 cells = tested on: C643 cells; parameters: method as in PMID 25409876; settings: cited from earlier work
[4] = tested on: cell lines used (TPC1, 8505C, C643, MCF7); parameters: method as in PMID 25409876; settings: any of the cell lines used; cited from earlier work
[5] = Solubility in aqueous media / buffer; assay type: physicochemical
[6] = Light-induced decaging (365 nm) monitored by HPLC; assay type: physicochemical
Experimental: Indeed, this compound was soluble in aqueous buffer (1 vol% DMSO) up to 100 μM. Photoinduced cleavage of 6 was readily achieved with 365 nm light, as monitored by HPLC.
(§1) Steady state absorption measurements (for thermal stability assessment of 6, see Fig. S3) were carried out on a Cary Bio 50 UV/vis spectrometer equipped with a Varian PCB 1500 Water Peltier System thermostat for temperature control. Sample volume was 3.0 mL. […] Irradiation in the assays was accomplished by placing the lamp directly on top of the sample plates/dishes. It should be noted that the exact light conditions in the assays may differ slightly depending on the type of plates/dishes used (see Methods sections below for plate specifications).
Figure S1. Light-induced decaging of 6. A Tris buffer solution (1vol% DMSO) containing 100 µM 6 was successively subjected to t = 0, 3, 6, 9, 12, 15, 30, 60, and 90 min of 365 nm light. After each irradiation period, an aliquot was drawn and analyzed using HPLC with UV detection. The integrated areas for the chromatogram peaks associated with 1 (hollow squares) and 6 (solid circles) were fitted globally (shared time constant) to a first order exponential (solid line), yielding a time constant of τ = 9.6 min for the decaging of 6. It should be noted that the individually extracted time constants for […]
from the globally fitted value.
(§2) (1 picture or pasted object on this page, not shown here)

[7] = Thermal stability in aqueous buffer by UV/vis absorption; assay type: physicochemical; settings: 48 h, 37 °C, 10 mM phosphate buffer pH 7.0, 1 vol% DMSO
Experimental: as §1
5.3 Thermal stability of 6 in 10 mM phosphate buffer, pH 7.
Figure S3. UV/vis absorption spectra of 6 in 10 mM phosphate buffer (pH 7.0, 1 vol% DMSO) at
t = 0 (solid black line), and after t = 48 h in 37 °C (dashed red line). Inset: Absorption at λ = 321 nm as
as §2

[8] = 100 µM 6 in Tris buffer 1 vol% DMSO

pIC50 (RET kinase (c-RET-GFRα2); free inhibitor, no irradiation, 3 h preincubation 37 °C): 6.33
pIC50 (Human recombinant RET; free inhibitor, no irradiation, 10 μM ATP, 30 min room temperature): 7.14
SMILES: CC(C)n1nc(C#Cc2ccccc2)c2c(N)ncnc21 [compound 1]
MAPK signalling and proliferation [1]: inhibited
PI3K/Akt and MAPK signalling and estrogen receptor α (ERα) phosphorylation (MCF7 cells): inhibited
proliferation (MCF7 cells): inhibit proliferation to a similar degree as tamoxifen
motoneuron axonal phenotype ([2]; 10 μM during development): phenotype was also observed
motoneuron axonal phenotype ([2]; 50 μM for 90 min at 6 hpf): phenotype was also observed
MAPK signalling and proliferation (8505C cells): not
in vitro activity against RET (RET): low nM range
selectivity profile toward RET (RET): partial inhibition of only six other tyrosine kinases
effect on GDNF-induced RET phosphorylation of ERK1/2 [3]: inhibitory effect
MAPK signalling and proliferation (C643 cells): not
cytotoxicity [4]: No cytotoxicity was observed

solubility in aqueous media [5]: insufficiently soluble
SMILES: COc1cc(COC(=O)Nc2ncnc3c2c(C#Cc2ccccc2)nn3C(C)C)c([N+](=O)[O-])cc1OC [compound 2]

SMILES: COc1cc(COC(=O)Nc2ncnc3c2c(C#Cc2ccccc2)nn3CCO)c([N+](=O)[O-])cc1OC [compound 3]
solubility in aqueous media [5]: too low to be practical for biological assays

solubility ([5]; kinetic from dmso stock, aqueous buffer, 1 vol% DMSO): ≤ 100 µM
pIC50 (RET kinase (c-RET-GFRα2); irradiated (365 nm, 15 min)): 5.06
IC50, live-cell RET activity (RET kinase (c-RET-GFRα2); non-irradiated): no IC50 value could be obtained
partial inhibition of RET activity in live cells (RET kinase (c-RET-GFRα2); non-irradiated, at concentrations higher than 6 μM): ca. 40%
RET kinase activity (Human recombinant RET; after irradiation): 10%
RET kinase activity (Human recombinant RET; before irradiation): 90%
increase of inhibitory capability upon light exposure (Human recombinant RET; irradiated (365 nm, 15 min) vs non-irradiated): 12 fold
pIC50 (Human recombinant RET; non-irradiated (kept in the dark)): 5.17
SMILES: COc1cc(COC(=O)Nc2ncnc3c2c(C#Cc2ccccc2)nn3C(C)C)c([N+](=O)[O-])cc1OCC(=O)O [compound 6, 2-(4-((((1-isopropyl-3-(phenylethynyl)-1H-pyrazolo[3,4-d]pyrimidin-4-yl)carbamoyl)oxy)methyl)-2-methoxy-5-nitrophenoxy)acetic acid]
exposure time required for complete (>99%) decaging [6]: at least 45 minutes
time constant τ, consumption of 6 (individual fit) [6, 8]: 8.7 min
time constant τ, liberation of 1 (individual fit) [6, 8]: 13.1 min
time constant τ of decaging, global fit (first order) ([6]; 1.5 mW/cm^2, 100 µM in Tris buffer 1 vol% DMSO): 9.6 min
motoneuron axonal phenotype ([2]; 10 μM, irradiated 15 min at 14 hpf): virtually no effect
motoneuron axonal phenotype ([2]; 50 μM from 3 hpf for 11 h, irradiated 15 min 365 nm at 14 hpf, imaged 2 dpf): motoneurons with shortened and malformed axons
motoneuron axonal phenotype ([2]; irradiated at 24 hpf after 10 h of incubation and wash): similar, but less severe, axonal phenotypes
motoneuron axonal phenotype ([2]; non-irradiated embryos (50 μM)): did not show any phenotypic anomalies
thermal stability (absorption spectrum) [7]: no changes in the absorption spectrum were detected; also recorded: No signs of degradation
